“And” between values parts separate entries of the source, which are not always exact repeats. Identical values can stand only once. Like-named read-outs stand apart in the source and are kept apart here.
Tested on: MCF-7 xenograft
Settings: for Caliper Measurement W / Caliper Measurement L / Tumor Volume TV: individual animals; for Caliper Measurement W / Caliper Measurement L / Tumor Volume TV / Tumor Volume TV, group Mean: VHH13 1 mg/kg ip tid × 14
[1] = Group 2, 1 mg/kg ip tid × 14 first Day 2 doses

Substance: anti-STAT3 VHH13: anti-STAT3 single-domain antibody, SEQ ID NO:3; bacterially produced, referred to as SBT-100
- time for the group to reach a tumor volume of 1000 mm^3 (1 mg/kg ip tid x 14, control group 25 days): 36 days
- Caliper Measurement W (Day 1): 6 mm
- Caliper Measurement L (Day 1, 1 mg/kg): 6 mm (2×) and 7 mm (2×)
- Tumor Volume TV (Day 4 (Jul. 30, 2015), 1 mg/kg): 196 mm^3 and 126 mm^3 and 144 mm^3
- Caliper Measurement L (Day 4, 1 mg/kg): 8 mm (2×) and 7 mm
- Caliper Measurement W (Day 4, 1 mg/kg): 7 mm and 6 mm (2×)
- Caliper Measurement L (Day 8, 1 mg/kg): 8 mm
- Caliper Measurement W (Day 8, 1 mg/kg): 7 mm
- Caliper Measurement L (Day 11, 1 mg/kg): 8 mm
- Caliper Measurement W (Day 11, 1 mg/kg): 9 mm and 7 mm
- Tumor Volume TV, group Mean (Day 15): 346.5 mm^3
- Caliper Measurement L (Day 15, 1 mg/kg): 9 mm
- Caliper Measurement W (Day 15, 1 mg/kg): 9 mm
- Tumor Volume TV (Day 15, 1 mg/kg): 405 mm^3 and 288 mm^3
- Caliper Measurement L (Day 18, 1 mg/kg): 9 mm
- Caliper Measurement W (Day 18, 1 mg/kg): 9 mm
- Caliper Measurement L (Day 22, 1 mg/kg): 11 mm
- Caliper Measurement W (Day 22, 1 mg/kg): 9 mm
- Caliper Measurement L (Day 25, 1 mg/kg): 12 mm
- Caliper Measurement W (Day 25, 1 mg/kg): 12 mm and 9 mm
- Caliper Measurement L (Day 29, 1 mg/kg): 13 mm
- Caliper Measurement W (Day 29, 1 mg/kg): 13 mm
- Tumor Volume TV, group Mean (Day 32): 500 mm^3
- Tumor Volume TV (Day 32): 500 mm^3
- Caliper Measurement L (Day 36): 12 mm
- Caliper Measurement W (Day 36): 12 mm
- Caliper Measurement L (Day 39): 13 mm
- Caliper Measurement W (Day 39): 13 mm
- % TGD [1]: 42%
- T-C [1]: 9.7

— patent US11370847B2, “Single domain antibodies directed against intracellular antigens” (Singh Biotechnology, LLC, priority 2014, dated 2022)
